Assay results taken from patent US20250034579A1, “METHODS AND COMPOSITIONS FOR GENETICALLY MODIFYING HUMAN GUT MICROBES” (Cornell University, priority 2021, published 2025).

How the values were obtained:
[1] = test system: Bacteroidia (Prevotella and Bacteroides) microbes; assay: Antibiotics test of Gram-negative Bacteroidia strains on agar plates; format: cell-based; settings: 66 Bacteroidia strains; TSAB plates with 15 μg/mL thiamphenicol (or MICs)
[2] = SPF mice; drinking water with thiamphenicol 15 μg/ml and erythromycin 10 μg/ml
[3] = test system: Bacteroides and Erysipelotrichaceae microbes; assay: Growth curve of bacteria in the presence of bile acids (OD600); format: cell-based; settings: 500 μM bile acid, DMSO control; 2 Bacteroides, 7 Erysipelotrichaceae
Procedure: Bacteroides (Bacteroides fragilis 3112 (Bac1) and Bacteroides vulgatus ATCC 8482 (Bac2)) and Erysipelotrichaceae (Clostridium ramosum ATCC 25554 (Ery1), Erysipelatoclostridium ramosum strain 113-1 (Ery2), Clostridium ramosum DSM 24812 (Ery3), Clostridium ramosum DSM 1402 (Ery4), HM-173 Clostridium innocuum 6_1_30 (Ery5), Clostridium innocuum DSM 22910 (Ery6) and Holdemania filiformis DSM 12042 (Ery7)) were streaked from a glycerol stock onto TSAB agar plates and incubated anaerobically for ˜ 24 h at 37° C. Three colonies were inoculated into 1 ml of Mega broth and were anaerobically cultured for overnight at 37° C. Cells were diluted 1,000-fold into Mega broth to reach late-log phase. Then 5 μL of the culture was resuspended in 145 μL broth, loaded into a 96-well plated, and incubated anaerobically at 37° C. in Multiskan Sky Microplate Spectrophotometer (Thermo Fisher Scientific). Four bile acids (CA, 7-oxoCA, DCA, and 3-oxoDCA, 500 μM each) were tested with their solvent DMSO as control. Optical densities at 600 nm (OD600) were recorded every 60 min until the cultures reached the stationary phase. Bacterial growth curves were performed in triplicate with each biological replicate deriving from a single colony.

[4] = test system: Erysipelotrichaceae microbes; format: cell-based; settings: in vitro consortium of 2 Bacteroides and 7 Erysipelotrichaceae; DCA at 0, 250 and 500 μM

Row | SMILES | resistance against thiamphenicol [1] | accumulation of supplemented antibiotic in the feces [2] | resistance of Erysipelotrichaceae microbes versus Bacteroides microbes (growth curve) [3] | expansion of Erysipelotrichaceae microbes (relative fold change by qPCR) [4]
1 | CS(=O)(=O)c1ccc([C@@H](O)[C@@H](CO)NC(=O)C(Cl)Cl)cc1 [thiamphenicol] | not resistant | ~5 pmol/mg | – | –
2 | C[C@H](CCC(=O)O)[C@H]1CC[C@H]2[C@@H]3CC[C@@H]4CC(=O)CC[C@]4(C)[C@H]3C[C@H](O)[C@]12C [3-oxo DCA] | – | – | more resistant | –
3 | C[C@H](CCC(=O)O)[C@H]1CC[C@H]2[C@@H]3CC[C@@H]4C[C@H](O)CC[C@]4(C)[C@H]3C[C@H](O)[C@]12C [DCA, deoxycholic acid] | – | – | more resistant | drives expansion
